Measured values: patent publication EP1210344B1, “HETEROPOLYCYCLIC COMPOUNDS AND THEIR USE AS METABOTROPIC GLUTAMATE RECEPTOR ANTAGONISTS” (NPS PHARMACEUTICALS, INC., priority 1999, dated 2001)

Molecular target: chimeric CaR/mGluR5d receptor (Homo sapiens, UniProt P41594)
Assay: CaR/mGluR5d Screening Assay (FLIPR, intracellular calcium)
Assay type: cell-based
Conditions: HEK 293 cells expressing the chimeric CaR/mGluR5d receptor, Fluo-3 fluorescence; read-out: IC50 value in relation to CaR/mGluR5d
Procedure: HEK 293 cells expressing the chimeric CaR/mGluR5d receptor (clonal cell line hCaR/hmGluR5d_hek6) are plated 24 hours prior to assay at a density of 100,000 cells per well in Collagen I-coated 96-well black, clear bottom plates (Becton Dickenson) in DMEM supplemented with 10% FBS (Hyclone).
On the day of the assay, tissue culture medium is aspirated from the wells of a plate and 80 µL of Assay Buffer (Assay Buffer is: 20 mM HEPES, 146 mM NaCl, 5 mM KCl, 1 mM MgCl2, 1 mM CaCl2, 1 mg/ml BSA, 1 mg/ml glucose, pH 7.4) supplemented with 6 µM of the Ca^2+-sensitive dye, Fluo-3 AM (Molecular Probes) and 0.025% Pluronic (Molecular Probes) is added to each well. The plate is then incubated in the dark for 1 hour at room temperature to efficiently load the cells with Fluo-3. At the end of the incubation, extracellular Fluo-3 is removed by washing the plate with Assay buffer. Assay Buffer is added back to each well (final volume = 160 µL) prior to beginning the assay.
The plate is loaded into a FLIPR robotic device (Molecular Devices) with the laser setting at 0.8 Watts. […] Relative fluorescence intensity (excitation λ = 488 nm / emission λ = 510 nM) is monitored at relevant time intervals throughout the assay period to measure receptor activation and/or inhibition.

Sequence of chimeric CaR/mGluR5d receptor (P41594 580-876, change not shown): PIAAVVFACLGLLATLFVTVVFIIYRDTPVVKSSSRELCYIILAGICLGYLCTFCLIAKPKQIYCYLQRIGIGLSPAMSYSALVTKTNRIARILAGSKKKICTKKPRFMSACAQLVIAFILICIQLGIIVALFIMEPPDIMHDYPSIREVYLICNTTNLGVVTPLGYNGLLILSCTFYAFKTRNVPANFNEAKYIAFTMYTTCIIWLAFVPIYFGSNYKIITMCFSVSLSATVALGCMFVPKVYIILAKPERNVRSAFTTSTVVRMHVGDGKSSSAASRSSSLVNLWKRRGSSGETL
Sequence of chimeric CaR/mGluR5d receptor (P41180 20-610 partner): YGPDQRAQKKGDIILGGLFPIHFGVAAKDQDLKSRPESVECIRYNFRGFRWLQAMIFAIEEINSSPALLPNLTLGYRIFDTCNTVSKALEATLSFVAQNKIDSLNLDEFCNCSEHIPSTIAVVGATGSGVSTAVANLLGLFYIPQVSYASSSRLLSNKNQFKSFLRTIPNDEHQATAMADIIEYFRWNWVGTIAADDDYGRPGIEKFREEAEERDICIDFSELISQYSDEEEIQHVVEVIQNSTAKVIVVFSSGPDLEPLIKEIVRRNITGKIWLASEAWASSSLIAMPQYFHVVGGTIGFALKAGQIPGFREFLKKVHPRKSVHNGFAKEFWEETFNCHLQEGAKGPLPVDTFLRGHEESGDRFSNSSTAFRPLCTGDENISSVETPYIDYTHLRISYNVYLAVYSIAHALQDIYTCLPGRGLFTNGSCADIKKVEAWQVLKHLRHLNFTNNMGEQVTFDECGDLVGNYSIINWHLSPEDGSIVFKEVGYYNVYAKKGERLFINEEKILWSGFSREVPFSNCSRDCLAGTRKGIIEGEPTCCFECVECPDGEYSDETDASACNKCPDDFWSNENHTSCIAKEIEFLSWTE

IC50: 45 nM
Structure (SMILES): N#Cc1cccc(-c2nc(-c3ccccn3)co2)c1 [B52, 2-[3-cyanophenyl]-4-[pyridin-2-yl]-1,3-oxazole]
